Laboratory results published in patent US20220241409A1, “WATER SOLUBLE ADJUVANT AND COMPOSITION CONTAINING SAME” (Sumitomo Dainippon Pharma Co., Ltd., priority 2019, published 2022).

Columns and labels:
[1] = tested on: HLA-A*02:01 transgenic mouse; test: Induction of antigen-specific effector memory CTL, flow cytometry (Test 14); assay type: in vivo; details: twice; for induction of antigen peptide-specific effector memory CTL (CD8+ tetramer+ CD127+ CD62L-): 325 ng per body in vaccine b compared with the vaccine without compound
Procedure: The activity of a vaccine comprising the compounds prepared in Examples 2 and 3 for inducing effector memory CTL was evaluated through the cell surface antigen expression analysis of CTL by flow cytometry.
Specifically, vaccine a prepared like Test 6 was injected to a HLA-A*02:01 transgenic mouse intradermally at the tail base area in an amount for administering 300 μg of Compound of formula 4 per body and 225 μg of Peptide SEQ ID No. 3 per body. The administrations were done twice, which had one week interval. Or, a vaccine prepared by adding the compound prepared in Example 3 to vaccine a was injected to the mouse intradermally at the tail base area in an amount for administering 300 μg of Compound of formula 4 per body, 225 μg of Peptide SEQ ID No. 3 per body, and 32.5 ng of the compound prepared in Example 3 per body. The administrations were done twice, which had one week interval. Or, vaccine b prepared like Test 8 was injected to the mouse intradermally at the tail base area in an amount for administering 300 μg of Compound of formula 4 per body and 225 μg of Peptide SEQ ID No. 3 per body. Or a vaccine prepared by adding the compound prepared in Example 3 to vaccine b was injected to the mouse intradermally at the tail base area in an amount for administering 300 μg of Compound of formula 4 per body, 225 μg of Peptide SEQ ID No. 3 per body, and 325 ng of the compound prepared in Example 3 per body. Or a vaccine prepared by adding the compound prepared in Example 2 to vaccine b was injected to the mouse intradermally at the tail base area in an amount for administering 300 μg of Compound of formula 4 per body, 225 μg of Peptide SEQ ID No. 3 per body, and 325 ng of the compound prepared in Example 2 per body. […] 1, a PE-Cy7-labeled anti-CD127 antibody, and a PerCP-Cy5.5-labeled anti-CD62L antibody, and analyzed for peptide-specific effector memory CTLs with a flow cytometer. The ratio of CD8-positive tetramer-positive CD127-positive CD62L-negative fraction in the lymphocyte fraction was calculated as peptide-specific effector memory CTL.

[2] = tested on: HLA-A*02:01 transgenic mouse; test: In vivo adjuvant activity, CTL induction with vaccine a, IFNγ ELISPOT (Test 7); details: for CTL counts responsive to Peptide SEQ ID No. 5: compound added to vaccine a versus no compound, Example 2 325 ng per body, Reference example 12 225 ng per body, twice, one week interval
Procedure: The in vivo adjuvant activity of the compound prepared in Example 2 and the compound prepared in Reference example 12 was evaluated in the following procedure. To vaccine a was added the compound prepared in Example 2 or the compound prepared in Reference example 12 to prepare each vaccine, and the vaccine was administered to a HLA-A*02:01 transgenic mouse, and the adjuvant activity of each vaccine was evaluated by the method of testing antigen-specific CTL induction.
Specifically, vaccine a prepared like Test 6 was injected to mice intradermally at the tail base area in an amount for administering 300 μg of Compound of formula 4 per body and 225 μg of Peptide SEQ ID NO. 3 per body. Or, in the step of preparing vaccine a, the compound prepared in Example 2 was added to the diluted peptide solution to prepare a vaccine, and the prepared vaccine was injected to mice intradermally at the tail base area in an amount for administering 300 μg of Compound of formula 4 per body, 225 μg of Peptide SEQ ID No. 3 per body, and 325 ng of the compound prepared in Example 2 per body. Or, in the step of preparing vaccine a, the compound prepared in Reference example 12 was added to the diluted peptide solution to prepare a vaccine, and the prepared vaccine was injected to mice intradermally at the tail base area in an amount for administering 300 μg of Compound of formula 4 per body, 225 μg of Peptide SEQ ID No. 3 per body, and 225 ng of the compound prepared in Reference example 12 per body. The administrations were done twice, which had one week interval. One week after the final administration, the mice were sacrificed with CO2 gas. Splenocytes were harvested from spleens removed from the mice. In particular, an ELISPOT plate was treated with an anti-mouse-IFNγ antibody on the day before preparation of the splenocyte samples. On the next day, the plate was blocked by treatment with an RPMI 1640 medium with 10% FBS. To the blocked ELISPOT plate, the prepared splenocyte samples were added at 6.25×10^4 cells/well. […] Stained spots were counted on ImmunoSpot Analyzer.

[3] = tested on: human peripheral blood mononuclear cell; test: Activation of immune cells, human PBMC cytokine/chemokine production (Test 3); assay type: cell-based; details: 200 nmol/L, one day, PBMCs from two donors, compared with only DMSO
Procedure: Cryopreserved peripheral blood mononuclear cells (PBMCs) of adult (C.T.L) were reconstituted, suspended in a culture medium which comprises AIM V medium (Life Technologies) supplemented with 10% human serum (biowest) and 1% MEM Non-Essential Amino Acids Solution (100×) (Life Technologies), and seeded on a U-bottom 96 well plate at 4×10^5 cells/well. The compound of the present invention was added in the presence of 0.1% (v/v) DMSO to the wells at a final concentration of 200 nmol/L. The plate was incubated at 37° C. under an atmosphere of 5% CO2. One day after the incubation, the culture supernatant was collected. The concentration of cytokine and chemokine (GM-CSF, IFNα2, IFNγ, IL-12p40, IL-1p, IL-6, IP-10, and TNFα) which were included in each culture supernatant was measured with Milliplex Human Cytokine/Chemokine Magnetic Bead Panel kit (Millipore) and Luminex system (Luminex) in accordance with the manufacturer's protocol.
The results of the test wherein PBMCs derived from two different donors were used were shown in FIG. 1-A to FIG. 1-I. The white bar indicates the mean number of the concentration of cytokine and chemokine in the culture supernatant from three wells to which only DMSO was added, and the black bar indicates the mean number of the concentration of cytokine and chemokine in the culture supernatant from three wells to which the present compound was added. […]

Row | Compound | induction of antigen peptide-specific effector memory CTL (CD8+ tetramer+ CD127+ CD62L-) [1] | increase of the CTL counts (Peptide SEQ ID No. 5) compared with Reference example 12 ([2]; Example 2 325 ng per body versus Reference example 12 225 ng per body, added to vaccine) | CTL counts responsive to Peptide SEQ ID No. 5 [2] | concentration of cytokine and chemokine (GM-CSF, IFNα2, IFNγ, IL-12p40, IL-1β, IL-6, IP-10, TNFα) in culture supernatant [3] | induction of peptide-specific effector memory CTL (CD8+ tetramer+ CD127+ CD62L-) ([1]; 32.5 ng per body in vaccine a compared with vaccine a)
1 | CCCCOc1nc(N)c2[nH]c(=O)n(Cc3ccc(CN(C)CCOCCOCCOCCOCCO)nc3)c2n1 [Example 2, 6-amino-2-butoxy-9-{[6-(16-hydroxy-2-methyl-5,8,11,14-tetraoxa-2-azahexadecan-1-yl)pyridin-3-yl]methyl}-7,9-dihydro-8H-purin-8-one-trifluoroacetate] | high frequency | more | more | higher | 
2 | CCCCOc1nc(N)c2[nH]c(=O)n(Cc3ccc(CN(C)CCOCCOCCOCCOCCO)cc3)c2n1 [Example 3, 6-amino-2-butoxy-9-{[4-(16-hydroxy-2-methyl-5,8,11,14-tetraoxa-2-azahexadecan-1-yl)phenyl]methyl}-7,9-dihydro-8H-purin-8-one] | high frequency |  |  | higher | high frequency
3 | CCCCOc1nc(N)c2[nH]c(=O)n(Cc3ccc(CNC)nc3)c2n1 [Reference example 12, reference compound] |  |  | more |  | 
